In patent US9994535B2, “Desferrithiocin polyether analogues” (University of Florida Research Foundation, Inc., priority 2005, dated 2018):

Key:
Format in all cases: in vivo
[1] = Iron clearing efficiency in non-iron overloaded, bile duct cannulated rat model; details: for Efficiency (%) (iron clearing efficiency): 300 μmol/kg, 24 hour iron excretion, 2:1 ligand-iron complex
Method: Iron Clearing Efficiency of Iron Chelators in a Non-Iron Overloaded, Bile Duct Cannulated Rat Model
Studies were performed in the non-iron overloaded, bile duct cannulated rodent model with the compounds shown below.
Briefly, male Sprague-Dawley rats averaging 450 g were housed in Nalgene plastic metabolic cages during the experimental period and given free access to water. The animals were anesthetized using sodium pentobarbital (55 mg/kg) administered intraperitoneally. The bile duct was cannulated using 22-gauge polyethylene tubing. The cannula was inserted into the duct about 1 cm from the duodenum and tied snugly in place. After threading through the shoulder, the cannula was passed from the rat to the swivel inside a metal torque-transmitting tether, which was attached to a rodent jacket around the animal's chest. The cannula was directed from the rat to a Gilson microfraction collector (Middleton, Wis.) by a fluid swivel mounted above the metabolic cage. Three hour bile samples were continuously collected for a minimum of 24 hours up to 48 hours. However, the efficiency calculations are based on the 24 hour iron excretion. The efficiency of each chelator was calculated on the basis of a 2:1 ligand-iron complex. The efficiencies in the rodent model were calculated by subtracting the iron excretion of control animals from the iron excretion of treated animals. This number was then divided by the theoretical output; the result is expressed as a percentage (Bergeron, R. J., et al., J. Med Chem. 42:95-108 (1999) the entire contents of which are incorporated herein by reference). The urine sample was taken at 24 hours and handled as previously described in Bergeron, R. J., et al., J. Med. Chem. 34:2072-2078 (1991), the entire contents of which are incorporated herein by reference.

[2] = Tissue and plasma concentrations upon subcutaneous administration to rats; details: rat
Method: Tissue Distribution of a Polyether-Substituted (S)-4′-Hydroxydesazadesferrithiocin Analogue [(S)-4′-(HO)-DADFT-PE] Upon Subcutaneous Administration to Rats
A measurement was made assessing (S)-4′-(HO)-DADFT-PE and (S)-4′-(HO)-DADFT tissue and plasma concentrations upon subcutaneous administration at times from 2-8 h post dosing. The rats were given this compound subcutaneously at 300 μmol/kg. The tissue and plasma level were obtained as described in Bergeron et al. J Med Chem. 48:821-831 (2005), the entire contents of which are incorporated herein by reference.

[3] = Iron clearing efficiency in iron-overloaded Cebus apella monkey model; details: primates, given either p.o. or s.c.
Method: Iron Chelators in a Cebus apella Monkey Model Studies were performed in the iron-overloaded monkey model with the compounds shown below: The protocol used can be found in Bergeron, R. J. et al., “Methoxylation of Desazadesferrithiocin Analogues: Enhanced Iron Clearing Efficiency,” J. Med. Chem. 46:1470-1477 (2003), the contents of which are incorporated herein by reference. Briefly, the monkeys were iron overloaded with iron dextran administered intravenously to result in an iron loading of about 500 mg per kg of body weight. At least 20 half-lives, 60 days, elapsed before the animals were used in experiments evaluating iron chelators. Fecal and urine samples were collected at 24 hour intervals beginning 4 days prior to the administration of an iron chelator and continued for 5 days after the chelator was administered. Iron concentrations in stool and urine were determined by flame atomic absorption spectroscometry. Iron chelator efficiency was calculated by dividing the net iron clearance [total iron excretion (stool plus urine) minus background] by the theoretical iron clearance and multiplying by 100. The theoretical clearance of the iron chelator was generated on the basis of a 2:1 ligand/iron complex.

Tissue distribution (where most is found) ([2]; sc): found in the liver, kidney and pancreas
Brain concentration of administered compound ([2]; sc 300 μmol/kg, 2 h): 0.5 ± 0.9 nmol/g wet wt
Brain concentration of administered compound ([2]; sc 300 μmol/kg, 4 h): 0.0 ± 0.0 nmol/g wet wt
Brain concentration of administered compound ([2]; sc 300 μmol/kg, 6 h): 0.0 ± 0.0 nmol/g wet wt
Brain concentration of administered compound ([2]; sc 300 μmol/kg, 8 h): 0.0 ± 0.0 nmol/g wet wt
Heart concentration of administered compound ([2]; sc 300 μmol/kg, 2 h): 9.2 ± 2.6 nmol/g wet wt
Heart concentration of administered compound ([2]; sc 300 μmol/kg, 4 h): 5.3 ± 1.4 nmol/g wet wt
Heart concentration of administered compound ([2]; sc 300 μmol/kg, 6 h): 0.0 ± 0.0 nmol/g wet wt
Heart concentration of administered compound ([2]; sc 300 μmol/kg, 8 h): 2.0 ± 1.7 nmol/g wet wt
Kidney concentration of administered compound ([2]; sc 300 μmol/kg, kidney, 2 h): 41.1 ± 3.0 nmol/g wet wt
Kidney concentration of administered compound ([2]; sc 300 μmol/kg, kidney, 4 h): 33.7 ± 13.5 nmol/g wet wt
Kidney concentration of administered compound ([2]; sc 300 μmol/kg, kidney, 6 h): 13.7 ± 2.1 nmol/g wet wt
Kidney concentration of administered compound ([2]; sc 300 μmol/kg, kidney, 8 h): 7.4 ± 2.1 nmol/g wet wt
Liver concentration of administered compound ([2]; sc 300 μmol/kg, 2 h): 131.6 ± 32.2 nmol/g wet wt
Liver concentration of administered compound ([2]; sc 300 μmol/kg, 4 h): 66.9 ± 12.4 nmol/g wet wt
Liver concentration of administered compound ([2]; sc 300 μmol/kg, 6 h): 34.3 ± 1.5 nmol/g wet wt
Liver concentration of administered compound ([2]; sc 300 μmol/kg, 8 h): 25.4 ± 4.6 nmol/g wet wt
Pancreas concentration of administered compound ([2]; sc 300 μmol/kg, 2 h): 29.6 ± 24.8 nmol/g wet wt
Pancreas concentration of administered compound ([2]; sc 300 μmol/kg, 4 h): 12.6 ± 5.2 nmol/g wet wt
Pancreas concentration of administered compound ([2]; sc 300 μmol/kg, 6 h): 4.6 ± 1.6 nmol/g wet wt
Pancreas concentration of administered compound ([2]; sc 300 μmol/kg, 8 h): 2.7 ± 2.6 nmol/g wet wt
concentration at 2 h ([2]; sc 300 μmol/kg, plasma, 2 h, read-out: Plasma concentration of administered compound): 16.2 ± 4.2 µM
concentration at 4 h ([2]; sc 300 μmol/kg, plasma, 4 h, read-out: Plasma concentration of administered compound): 5.3 ± 2.6 µM
concentration at 6 h ([2]; sc 300 μmol/kg, plasma, 6 h, read-out: Plasma concentration of administered compound): 1 ± 1 µM
concentration at 8 h ([2]; sc 300 μmol/kg, plasma, 8 h, read-out: Plasma concentration of administered compound): 0 nM
Metabolism back to (S)-4-(HO)DADFT ([2]; sc, any tissue): very little metabolism
Kidney level compared with (S)-4-(HO)-DADFT ([2]; sc, kidney, any time point): much less of the PE in the kidney
Structure (SMILES): COCCOCCOCCOc1ccc(C2=N[C@@](C)(C(=O)O)CS2)c(O)c1 [(S)-4′-(HO)-DADFT-PE, (S)-4,5-Dihydro-2-[2-hydroxy-4-[2-[2-(2-methoxyethoxy)ethoxy]ethoxy]phenyl]-4-methyl-4-thiazolecarboxylic Acid]
Efficiency (%) (iron clearing efficiency) ([1]; p.o.): 6.6 ± 1.9%
Efficiency (%) (iron clearing efficiency) ([1]; s.c.): 8.7 ± 2.8%
Iron clearing efficiency compared with parent drug (S)-4-(HO)-DADFT ([1]; same micromole per kilogram dose): work better than the parent drug
Iron clearing efficiency compared with (S)-4′-(HO)-DADFT [3]: at least as efficient as (S)-4′-(HO)-DADFT
